In this assay the target is T1, human GPR84 receptor (Homo sapiens, UniProt Q9NQS5).
T1 construct: host or cells: HEK293, transient transfection
The experiment in a line: Gαi biosensor BRET assay in HEK293 cells (antagonism of ZQ-16). The class given is cell-based. Conditions: for IC50: HEK293 cells, antagonism of 200 nmol/L ZQ-16; for inhibition at 2 µM: HEK293, single concentration 2 μM (designated A); for inhibition at 10 µM: HEK293, single concentration 10 μM (designated F); for inhibition at 25 µM: HEK293, single concentration 25 μM (designated I). The source says: Background—The following assays can be used for determination of GPR84 activation in living HEK293 cells. The Gai BRET biosensor (Gagnon et al., 2018; Gales et al., 2006. Nat StructMol Biol. 13, 778-86; Saulieres et al., 2012. Nat Chem Biol. 8, 622-30) allows to directly monitor GPR84-mediated activation of Gai. The Gai biosensor consists of a Rluc8-tagged Gαi2 subunit, a GFP10-tagged Gγ2 subunit, and an untagged Gβ1. Agonist stimulation and GPR84 activation triggers a physical separation between the RLuc8-Gαi donor and the GFP10-Gγ2 acceptor, resulting in a decrease in BRET signal whose amplitude is correlated to ligand efficacy (Gales et al., 2006). Moreover, signaling functions of GPCRs are tightly regulated by endocytosis, the targeting of receptors to endosomes and their sorting to lysosomes or recycling to the plasma membrane. The early endosomes (EEs) trafficking assay (Namkung et al., 2016. Nat Commun. 7, 12178) uses Rluc8-tagged GPR84 and Renilla GFP (rGFP) attached to the FYVE domain from human endofin/zinc finger FYVE domain-containing protein 16, which binds phosphatidylinositol 3-phosphate in EEs. Agonist stimulation of GPR84-Rluc8 leads to trafficking of the receptor to EEs, and ensuing increase of the donor concentration relative to the rGFP-FYVE acceptor anchored in the same cellular compartment, and thus results in an increase in BRET signal.
Plasmids—The cDNA clones for human GPR84 receptor, human Gai2, Gp1, and Gy2 were obtained from the cDNA Resource Center (www.cdna.org). GFP10 (F64L, S147P, S202F and H231L variant of Aequorea victoria Green Fluorescent Protein) gBlocks gene fragments (Integrated DNA Technologies, IA) and linker were inserted in frame at the N-terminus of human Gγ2. Rluc8 (A55T, C124A, S130A, K136R, A143M, M185V, M253L, and S287L variant of the Renilla renformis luciferase) gBlocks gene fragment was inserted with linkers in frame in between residues 91 and 92 of Gai2 or at the C-terminus of GPR84. The FYVE domain from human endofin (residues Q739 to K806) attached in frame at the C terminus of a humanized Renilla GFP (rGFP), were synthesized as gBlocks gene fragments.
Bioluminescence Resonance Energy Transfer (BRET) Measurement—HEK293 cells were transfected with GPR84-Rluc8 and rGFP-FYVE for the EEs trafficking biosensor or with GPR84, Gαi2-Rluc8, GFP10-Gγ2, and Gβ1 for the Gαi biosensor. The following day, transiently transfected cells were seeded in 96-well white clear bottom microplates coated with poly-D-lysine and left in culture for 24 hours. Cells were washed once with Tyrode's buffer (140 mmol/L NaCl, 1 mmol/L CaCl2, 2.7 mmol/L KCl, 0.49 mmol/L MgCl2, 0.37 mmol/L NaH2PO4, 5.6 mmol/L glucose, 12 mmol/L NaHCO3, and 25 mmol/L HEPES, pH 7.5) before performing assays in Tyrode's buffer. Test compounds were incubated with cells for 5 (Gαi) or 15 (EEs) minutes at 37° C. before addition of 200 nmol/L of the GPR84 agonist ZQ-16 (2-(Hexylthio)-6-hydroxy-4(3H)-pyrimidinone) for 5 minutes at room temperature (Gαi) or 30 minutes at 37° C. (EEs). The Rluc8 substrate coelenterazine 400A (Prolume, Lakeside, AZ) was added at a final concentration of 5 μmol/L and BRET readings were collected using an Infinite M1000 microplate reader (Tecan, Morrisville, NC). BRET^2 readings between Rluc8 and GFP10 or rGFP were collected by sequential integration of the signals detected in the 370 to 450 nm (Rluc8) and 510 to 540 nm (GFP10, rGFP) windows. The BRET signal was calculated as the ratio of light emitted by acceptor (GFP10, rGFP) over the light emitted by donor (Rluc8). The values were corrected to net BRET by subtracting the background BRET signal obtained in cells transfected with Rluc8 constructs alone. Ligand-promoted net BRET values were calculated by subtracting vehicle-induced net BRET from ligand-induced net BRET.
(In general: In BRET a luciferase serves as donor, and the signal depends on an acceptor being close.)

Structures are written as SMILES. A value given as a limit tells only on which side of the number the result lay.

T1 sequence (Q9NQS5 whole entry): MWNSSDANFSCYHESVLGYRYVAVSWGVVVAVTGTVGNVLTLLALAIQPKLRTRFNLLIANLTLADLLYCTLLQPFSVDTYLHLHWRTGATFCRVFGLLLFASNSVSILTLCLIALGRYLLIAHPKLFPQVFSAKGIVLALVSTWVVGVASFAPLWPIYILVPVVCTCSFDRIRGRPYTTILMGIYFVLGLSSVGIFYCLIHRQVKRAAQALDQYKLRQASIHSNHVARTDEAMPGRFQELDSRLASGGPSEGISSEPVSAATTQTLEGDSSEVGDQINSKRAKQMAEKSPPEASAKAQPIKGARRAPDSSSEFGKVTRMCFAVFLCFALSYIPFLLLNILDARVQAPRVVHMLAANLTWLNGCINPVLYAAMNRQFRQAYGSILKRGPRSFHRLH

For orientation: inhibition means the change of the read-out against control, counted positive when it falls. Lower therefore signals little suppression. As a reminder, the IC50 is the concentration at which inhibition is half-maximal. A lower IC50 goes with higher potency. In the case of `Cc1cc(N2CC(C)(C)C2)ccc1-c1cn(C[C@H]2CCCCO2)nn1` [Compound I-253], the IC50 is no more than 300 nM. For the same compound, for the setting “HEK293, single concentration 3.3 μM (designated C)”, the inhibition at 3.3 µM was greater than 75%.

Consider `CC1(C)COC(Cn2cc(-c3ncc(C#CC4CC4)cc3CO)nn2)OC1` [Compound I-738], for which the inhibition at 2 µM is no more than 25%.

Compound `CC(=O)N1CCN(c2ccc(-c3cn(CC4CCCCO4)nn3)c(C)c2)CC1` (centres unmarked) [Compound I-112] had an inhibition at 10 µM of no more than 25%.

`Cc1cc(N2CC3(CCN(C(=O)c4ccccc4)CC3)C2)ccc1-c1cn(CC2CCCCO2)nn1` (centres unmarked) [Compound I-310] gave an inhibition at 10 µM of 50 to 75% and a half-maximal inhibitory concentration (IC50) of 1000 to 3000 nM. In the case of `CC1(C)COC(Cn2cc(-c3ncc(C#CCN4CC(C)(C)C4)cc3CC(F)(F)F)nn2)OC1` [Compound I-762], the half-maximal inhibitory concentration (IC50) is no more than 300 nM. With `FC(F)c1cc(C#CC2CC2)ccc1-c1cn(CC2CCCCO2)nn1` (centres unmarked) [Compound I-560], the inhibition at 10 µM lay in the range of 25 to 50%. Compound `C[S+]([O-])c1cc(C#CC2CC2)ccc1-c1cn(CC2CCCCO2)nn1` (centres unmarked) [Compound I-218] yielded an inhibition at 10 µM of no more than 25%. In turn, `CC(=O)N1CCOC(Cn2cc(-c3ccc(C#CC4CC4)cc3C)nn2)C1` (centres unmarked) [Compound I-96] displayed an inhibition at 10 µM of no more than 25%. For the compound `CC(C)Oc1cc(C#CCN2CC(C)(C)C2)cnc1-c1cn(CC2OCC(C)(C)CO2)nn1` [Compound I-676], the inhibition at 2 µM is greater than 75% and the IC50 was no more than 300 nM. With `Cc1cc(N2CC(C(C)O)C2)ccc1-c1cn(CC2CCCCO2)nn1` (centres unmarked) [Compound I-508], the inhibition at 10 µM lay within 50 to 75%.

For `Cc1cc(NS(C)(=O)=O)ccc1-c1cn(CC2CCCCO2)nn1` (centres unmarked) [Compound I-130], the inhibition at 10 µM was no more than 25%. As for `Cc1ccc(C#CC2CC2)cc1Cc1cn(CC2CC(C)(C)CO2)nn1` (centres unmarked) [Compound I-643], the inhibition at 2 µM lay in the range of 50 to 75%. As to `C(#CC1CC1)c1csc(-c2cn(CC3CCCCO3)nn2)n1` (centres unmarked) [Compound I-241], the inhibition at 10 µM is no more than 25%. The same measure, in the same setting: for `Cc1cc(C#CC2CC2)ccc1Cc1cn(CC2CCCCO2)nn1` (centres unmarked) [Compound I-300] the value was 25 to 50%; for `CS(=O)(=O)c1cc(C#CC2CC2)ccc1-c1cn(CC2CCCCO2)nn1` (centres unmarked) [Compound I-219], no more than 25%.

Consider `Cc1cc(C#CC2CC2)ccc1-c1cn(CC2OCC3(CC3)CO2)nn1` [Compound I-686], for which the inhibition at 10 µM is greater than 75% and the IC50 was in the range of 300 to 1000 nM. Compound `CCc1cc(C#CCN2CC(C)(C)C2)cnc1-c1cn(C[C@H]2CCCCO2)nn1` [Compound I-277] returned an inhibition at 10 µM greater than 75%. The compound `Cc1cc(C#CC2CC2)ccc1-n1nc(CC2CCCCO2)oc1=O` (centres unmarked) [Compound I-12] had an inhibition at 10 µM of 25 to 50%. With `Cc1cc(C#CCNc2ccncc2)ccc1-c1cn(CC2CCCCO2)nn1` (centres unmarked) [Compound I-122], the inhibition at 10 µM was in the range of 25 to 50%.

Regarding `Cc1cc(C#CC2CC2)cc(F)c1-c1cn(CC2CCCCO2)nn1` (centres unmarked) [Compound I-575], the inhibition at 10 µM is greater than 75%. The same measure, in the same setting: for `Cc1cc(N2CCC(O)C2)ccc1-c1cn(CC2CCCCO2)nn1` (centres unmarked) [Compound I-436] the value was no more than 25%.

Regarding `CC(C)C#Cc1ccc(-c2cn(CC3CCCCO3)nn2)cc1` (centres unmarked) [Compound I-57], the inhibition at 25 µM is no more than 25%. `Cc1ccc(C#CC2CC2)cc1[S+]([O-])c1cn(CC2OCC(C)(C)CO2)nn1` (racemic) [Compound I-782, (RS)-4-((5-(cyclopropylethynyl)-2-methylphenyl)sulfinyl)-1-((5,5-dimethyl-1,3-dioxan-2-yl)methyl)-1H-1,2,3-triazole]: the inhibition at 10 µM is greater than 75%. `Cc1cc(C#CCN)cnc1-c1cn(CC2CCCCO2)nn1` (centres unmarked) [Compound I-826, 3-(5-methyl-6-(1-((tetrahydro-2H-pyran-2-yl)methyl)-1H-1,2,3-triazol-4-yl)pyridin-3-yl)prop-2-yn-1-amine] displayed an inhibition at 10 µM greater than 75%. In turn, `CC(C)Oc1cc(N2CC(C)(CO)C2)cnc1-c1cn(CC2CC(C)(C)CO2)nn1` (centres unmarked) [Compound I-501] came in with an inhibition at 10 µM greater than 75% and an IC50 of 1000 to 3000 nM. Regarding `Cc1cc(N2CC(C)(NCc3ccccn3)C2)c(F)cc1-c1cn(CC2CCCCO2)nn1` (centres unmarked) [Compound I-737], the inhibition at 10 µM is greater than 75% and the IC50 lay in the range of 300 to 1000 nM. `Cc1cc(C#CCNc2ccccc2)cnc1-c1cn(C[C@H]2CCCCO2)nn1` [Compound I-394] returned an inhibition at 10 µM greater than 75%. `Cc1cc(C#CC2CC2)ccc1-c1cn(CC23CCC(CC2)CO3)nn1` [Compound I-509] showed an inhibition at 2 µM of no more than 25%. As for `COC(c1cn(Cc2ncccn2)nn1)c1cc(C#CC2CC2)ccc1C` (centres unmarked) [Compound I-674], the inhibition at 2 µM is greater than 75% and the IC50 lay in the range of 300 to 1000 nM. In the case of `Cc1cc(C(=O)n2ccc(N)n2)ccc1-c1cn(CC2CCCCO2)nn1` (centres unmarked) [Compound I-438], the inhibition at 10 µM lay in the range of 25 to 50%.

The compound `Cc1cc(C#CC2CC2)ccc1-c1cn(C[C@H]2COC(C)(C)O2)nn1` [Compound I-222] gave an inhibition at 10 µM of 50 to 75%. `CC(C)Oc1cc(N2CC(C)(CO)C2)cnc1-c1cn(CC2OCC3(CCC3)O2)nn1` (centres unmarked) [Compound I-809]: the inhibition at 2 µM was greater than 75%. Consider `CCOc1cc(C#CCOC)cnc1-c1cn(CC2OCC(C)(C)CO2)nn1` [Compound I-834], for which the inhibition at 10 µM was no more than 25% and the half-maximal inhibitory concentration (IC50) was no more than 300 nM.

Regarding `Cc1cc(N2CC(C(C)(C)O)C2)ccc1-c1cn(CC2CCCCO2)nn1` (centres unmarked) [Compound I-477], the inhibition at 10 µM fell in the range of 50 to 75%. On to `Cc1cc(C#CC2CC2)ccc1-c1cn(CC23CC(CO2)C3)nn1` [Compound I-525], for which the inhibition at 10 µM was no more than 25%. For the compound `Cc1cc(N2CC(C)(Nc3ccccc3)C2)ccc1-c1cn(CC2CCCCO2)nn1` (centres unmarked) [Compound I-537, 3-methyl-1-(3-methyl-4-(1-((tetrahydro-2H-pyran-2-yl)methyl)-1H-1,2,3-triazol-4-yl)phenyl)-N-phenylazetidin-3-amine], the inhibition at 10 µM is greater than 75% and the IC50 lay within 300 to 1000 nM. `Cc1cc(N2CCN([C@H](C)c3ccccn3)CC2)ccc1-c1cn(CC2OCC(C)(C)CO2)nn1` [Compound I-715]: the inhibition at 10 µM is greater than 75%. As to `Cc1cc(N2CCN(Cc3ccnn3C)CC2)ccc1-c1cn(CC2CCCCO2)nn1` (centres unmarked) [Compound I-581], the inhibition at 10 µM is no more than 25%. In turn, `C(#CC1CC1)c1ccc(-c2ccn(CC3CCCCO3)n2)cc1` (centres unmarked) [Compound I-321] displayed an inhibition at 25 µM of 25 to 50%. The compound `Cc1cc(C#CC2CC2)ccc1-c1cn(CC2CC(C)(C)CO2)nn1` (centres unmarked) [Compound I-226] came in with an inhibition at 10 µM greater than 75% and a 50% inhibitory concentration (IC50) of 1000 to 3000 nM. In turn, `CCc1cc(N2CC(C)(CO)C2)cnc1-c1cn(CC2CC(C)(C)CO2)nn1` (centres unmarked) [Compound I-500] returned an inhibition at 10 µM greater than 75% and an IC50 of 1000 to 3000 nM. The compound `CC1(C)COC(Cn2cc(-c3ccc(N4CC(C)(CO)C4)cc3CC(F)(F)F)nn2)OC1` [Compound I-735] showed an inhibition at 2 µM greater than 75% and an IC50 of no more than 300 nM. Regarding `CN(c1cccc(C#CC2CC2)c1)c1cn(CC2OCC(C)(C)CO2)nn1` [Compound I-824], the inhibition at 10 µM was no more than 25%. Compound `Cc1cc(N2CCN(c3ccccn3)CC2)ccc1-c1cn(CC2CCCCO2)nn1` (centres unmarked) [Compound I-533] gave an inhibition at 10 µM of no more than 25%.

The values above are taken from patent publication US12617777B2, “GPR84 antagonists and uses thereof” (Liminal BioSciences Limited, priority 2021, dated 2026).
